Results taken from patent publication US20100331269A1, “TRITERPENES DERIVATIVES AND USES THEREOF AS ANTITUMOR AGENTS OR ANTI-INFLAMMATORY AGENTS” (priority 2006, published 2010).

Assays:
[1] = system: A-549 human lung carcinoma cells; assay: Cytotoxicity, resazurin metabolism assay, A-549; assay type: cell-based; details: 48 h, mean ± SD
Excerpt: (§1) Human lung carcinoma (A-549), human colon adenocarcinoma (DLD-1), human normal fibroblasts (WS1), mice melanoma (B16-F1), Human glioma (U-251), Human hepatocellular carcinoma (HEP G2), Human prostate adenocarcinoma (PC-3), Human ovary teratocarcinoma metastatic (PA-1), Human breast adenocarcinona metastatic (MDA-MB-231), Human breast adenocarcinoma (MCF-7) and Human malignant melanoma (SK-MEL-2) cell lines were obtained from the American Type Culture Collection (ATCC). All cell lines were cultured in minimum essential medium containing Earle's salts and L-glutamine (Mediatech Cellgro, Va.), to which was added 10% fetal bovine serum (Hyclone), vitamins (1×), penicillin (100 I.U./mL) and streptomycin (100 μg/mL), essential amino acids (1×) and sodium pyruvate (1×) (Mediatech Cellgro, Va.). Cells were kept at 37° C. in a humidified environment containing 5% CO2.
(§2) Exponentially growing cells were plated in 96-well microplates (Costar, Corning Inc.) at a density of 5×10^3 cells per well in 100 μL of culture medium and were allowed to adhere for 16 hours before treatment. Increasing concentrations of each compound in DMSO (Sigma-Aldrich) were then added (100 μL per well) and the cells were incubated for 48 h. […] Cytotoxicity was assessed using resazurin (O'Brien, J. et al., Eur. J. Biochem. 2000, 267, 5421-5426) on an automated 96-well Fluoroskan Ascent F1™ plate reader (Labsystems) using excitation and emission wavelengths of 530 nm and 590 nm, respectively. Fluorescence was proportional to the cellular metabolic activity in each well. Survival percentage was defined as the fluorescence in experimental wells compared to that in control wells after subtraction of blank values. Each experiment was carried out three times in triplicata. IC50 results were expressed as mean±standard deviation.
(§3) The cytotoxicity of triterpenes (1-8) and corresponding glycosides (9-30) (Table 2 below) as well as of germanicane-type triterpenes and glycosides (31-44) (Table 3 below) was assessed towards human cancer (A-549, DLD-1), mouse melanoma (B16-F1) and human normal skin fibroblast (WS1) cell lines using the resazurin reduction test (RTT test) as previously described (O'Brien, J. et al., Eur. J. Biochem. 2000, 267, 5421-5426). Measurements of fluorescence were carried out after 48 continuous hours of contact between compounds and cells. Results presented in Tables 2 and 3 below express the concentration inhibiting 50% of the cell growth (IC50). Known for its activity against A-549, betulinic acid (3) was used as a positive control in this experimentation. […] The cytotoxic activity of some of these compounds was also assessed using the Hoechst DNA assay (Table 4 below).

[2] = system: DLD-1 human colorectal adenocarcinoma cells; assay: Cytotoxicity, resazurin metabolism assay, DLD-1; assay type: cell-based; details: 48 h, mean ± SD
Excerpt: as §1, §2, §3

[3] = system: B16-F1 mouse melanoma cells; assay: Cytotoxicity, resazurin metabolism assay, B16-F1; assay type: cell-based; details: 48 h, mean ± SD
Excerpt: as §1, §2, §3

[4] = system: WS-1 human normal skin fibroblasts; assay: Cytotoxicity, resazurin metabolism assay, WS-1; assay type: cell-based; details: 48 h, mean ± SD
Excerpt: as §1, §2, §3

A-549 cells = assay: Cytotoxicity, Hoechst DNA assay, A-549; assay type: cell-based, human; details: ± SD
Excerpt: as §1, §3

DLD-1 cells = assay: Cytotoxicity, Hoechst DNA assay, DLD-1; assay type: cell-based, human; details: ± SD
Excerpt: as §1, §3

B16-F1 cells = assay: Cytotoxicity, Hoechst DNA assay, B16-F1; assay type: cell-based, mouse; details: ± SD
Excerpt: as §1, §3

WS-1 cells = assay: Cytotoxicity, Hoechst DNA assay, WS-1; assay type: cell-based, human; details: ± SD
Excerpt: as §1, §3

| Structure (SMILES) | IC50 [1] [µM] | IC50 [2] [µM] | IC50 [3] [µM] | IC50 [4] [µM] | IC50 (A-549 cells) [µM] | IC50 (DLD-1 cells) [µM] | IC50 (B16-F1 cells) [µM] | IC50 (WS-1 cells) [µM] |
| --- | --- | --- | --- | --- | --- | --- | --- | --- |
| C=C(C)[C@@H]1CC[C@]2(C)CC[C@]3(C)[C@H](CC[C@@H]4[C@@]5(C)CC[C@H](O)C(C)(C)[C@@H]5CC[C@]43C)[C@@H]12 [Compound 1, Lupeol, reference compound] | 165 ± 8 | 125 ± 6 | 104 ± 6 | 63 ± 3 | 130 ± 20 | 102 ± 6 | 72 ± 9 | 70 ± 10 |
| C=CCOC(=O)C12CCC(C(=C)C)C1C1CCC3C4(C)CCC(O)C(C)(C)C4CCC3(C)C1(C)CC2 (centres unmarked) [Compound 8, Allyl betulinate] | > 225 | > 225 | > 225 | > 225 | > 225 | > 225 | > 225 | > 225 |
| CC1(C)CC[C@]23CC[C@]4(C)[C@H](CC[C@@H]5[C@@]6(C)CC[C@H](O[C@@H]7OC[C@@H](O)[C@H](O)[C@H]7O)C(C)(C)[C@@H]6CC[C@]54C)[C@H]2[C@H]1OC3=O [Compound 44, 3-O-β-D-Xylopyranoside of 28-Oxyallobetulin] | > 100 | > 100 | – | > 100 | – | – | – | – |
| C=C(C)[C@@H]1CC[C@]2(C(=O)O)CC[C@]3(C)[C@H](CC[C@@H]4[C@@]5(C)CC[C@H](O[C@@H]6O[C@H](CO)[C@@H](O)[C@H](O)[C@H]6O)C(C)(C)[C@@H]5CC[C@]43C)[C@@H]12 [Compound 21, 3-O-β-D-Glucopyranoside of Betulinic Acid] | > 178 | 32 ± 9 | 49 ± 13 | > 178 | > 178 | 12 ± 3 | 17 ± 4 | > 178 |
| C=C(C)[C@@H]1CC[C@]2(CO)CC[C@]3(C)[C@H](CC[C@@H]4[C@@]5(C)CC[C@H](O)C(C)(C)[C@@H]5CC[C@]43C)[C@@H]12 [Compound 2, Betulin, reference compound] | 3.8 ± 0.09 | 6.6 ± 0.3 | 13.8 ± 0.5 | 3.58 ± 0.07 | 4.5 ± 0.3 | 5.9 ± 0.6 | 10.3 ± 0.7 | 5 ± 1 |
| C=C(C)[C@@H]1CC[C@]2(C)CC[C@]3(C)[C@H](CC[C@@H]4[C@@]5(C)CC[C@H](O[C@@H]6O[C@@H](C)[C@H](O)[C@@H](O)[C@H]6O)C(C)(C)[C@@H]5CC[C@]43C)[C@@H]12 [Compound 10, 3-O-α-L-Rhamnopyranoside of lupeol] | > 178 | > 178 | > 178 | > 178 | > 178 | > 178 | > 178 | > 178 |
| C=C(C)[C@@H]1CC[C@]2(COC(C)=O)CC[C@]3(C)[C@H](CC[C@@H]4[C@@]5(C)CC[C@H](OC(C)=O)C(C)(C)[C@@H]5CC[C@]43C)[C@@H]12 [Compound 4, 3,28-Diacetoxybetulin] | > 95 | > 95 | > 95 | > 95 | – | – | – | – |
| CC1(C)CC[C@]23CC[C@]4(C)[C@H](CC[C@@H]5[C@@]6(C)CC[C@H](O[C@@H]7OC[C@@H](O)[C@H](O)[C@H]7O)C(C)(C)[C@@H]6CC[C@]54C)[C@H]2[C@H]1OC3 [Compound 38, 3-O-β-D-Xylopyranoside of Allobetulin] | > 100 | > 100 | – | > 100 | – | – | – | – |
| CC1(C)CC[C@]23CC[C@]4(C)[C@H](CC[C@@H]5[C@@]6(C)CC[C@H](O)C(C)(C)[C@@H]6CC[C@]54C)[C@H]2[C@H]1OC3 [Compound 31, Allobetulin] | > 100 | > 100 | – | > 100 | – | – | – | – |
| C[C@@H]1O[C@@H](O[C@H]2CC[C@]3(C)[C@H]4CC[C@@H]5[C@H]6[C@H]7OC(=O)[C@@]6(CCC7(C)C)CC[C@@]5(C)[C@]4(C)CC[C@H]3C2(C)C)[C@H](O)[C@H](O)[C@H]1O [Compound 40, 3-O-α-L-Rhamnopyranoside of 28-Oxyallobetulin] | > 100 | > 100 | – | > 100 | – | – | – | – |
| CC1(C)CCC23CCC4(C)C(CCC5C6(C)CCC(OC7OCC(O)C(O)C7O)C(C)(C)C6CCC54C)C2C1OC3 [Compound 35, 3-O-α-D-Arabinopyranoside of Allobetulin] | > 100 | > 100 | – | > 100 | – | – | – | – |
| CC1(C)CCC23CCC4(C)C(CCC5C6(C)CCC(OC7OC(CO)C(O)C(O)C7O)C(C)(C)C6CCC54C)C2C1OC3=O [Compound 39, 3-O-β-D-Glucopyranoside of 28-Oxyallobetulin] | > 100 | > 100 | – | > 100 | – | – | – | – |
| CC1(C)CC[C@]23CC[C@]4(C)[C@H](CC[C@@H]5[C@@]6(C)CC[C@H](O)C(C)(C)[C@@H]6CC[C@]54C)[C@H]2[C@H]1OC3=O [Compound 32, 28-Oxyallobetulin] | > 100 | > 100 | – | 70 ± 9 | – | – | – | – |
| C[C@@H]1O[C@@H](O[C@H]2CC[C@]3(C)[C@H]4CC[C@@H]5[C@H]6[C@H]7OC[C@@]6(CCC7(C)C)CC[C@@]5(C)[C@]4(C)CC[C@H]3C2(C)C)[C@H](O)[C@H](O)[C@H]1O [Compound 34, 3-O-α-L-Rhamnopyranoside of Allobetulin] | > 100 | > 100 | – | 75 ± 5 | – | – | – | – |
| CC1(C)CC[C@]23CC[C@]4(C)[C@H](CC[C@@H]5[C@@]6(C)CC[C@H](O[C@H]7OC[C@@H](O)[C@@H](O)[C@@H]7O)C(C)(C)[C@@H]6CC[C@]54C)[C@H]2[C@H]1OC3=O [Compound 41, 3-O-α-D-Arabinopyranoside of 28-oxyallobetulin] | > 100 | > 100 | – | > 100 | – | – | – | – |
| C=C(C)[C@@H]1CC[C@]2(C(=O)O)CC[C@]3(C)[C@H](CC[C@@H]4[C@@]5(C)CC[C@H](O[C@@H]6O[C@H](CO)[C@H](O)[C@H](O)[C@H]6O)C(C)(C)[C@@H]5CC[C@]43C)[C@@H]12 [Compound 28, 3-O-β-D-Galactopyranoside of Betulinic Acid] | > 100 | > 100 | – | > 100 | – | – | – | – |
| CC1(C)CC[C@]23CC[C@]4(C)[C@H](CC[C@@H]5[C@@]6(C)CC[C@H](O[C@H]7O[C@H](CO)[C@@H](O)[C@H](O)[C@@H]7O)C(C)(C)[C@@H]6CC[C@]54C)[C@H]2[C@H]1OC3=O [Compound 43, 3-O-α-D-Mannopyranoside of 28-oxyallobetulin] | > 100 | > 100 | – | > 100 | – | – | – | – |
| C=C(C)[C@@H]1CC[C@]2(CO)CC[C@]3(C)[C@H](CC[C@@H]4[C@@]5(C)CC[C@H](O[C@@H]6OC[C@@H](O)[C@H](O)[C@H]6O)C(C)(C)[C@@H]5CC[C@]43C)[C@@H]12 [Compound 27, 3-O-β-D-Xylopyranoside of Betulin] | 90 ± 10 | > 100 | – | > 100 | – | – | – | – |
| CC1(C)CC[C@]23CC[C@]4(C)[C@H](CC[C@@H]5[C@@]6(C)CC[C@H](O[C@H]7O[C@H](CO)[C@@H](O)[C@H](O)[C@@H]7O)C(C)(C)[C@@H]6CC[C@]54C)[C@H]2[C@H]1OC3 [Compound 37, 3-O-α-D-Mannopyranoside of Allobetulin] | > 100 | > 100 | – | > 100 | – | – | – | – |
| C=C(C)[C@@H]1CC[C@]2(CO)CC[C@]3(C)[C@H](CC[C@@H]4[C@@]5(C)CC[C@H](O[C@@H]6O[C@H](CO)[C@H](O)[C@H](O)[C@H]6O)C(C)(C)[C@@H]5CC[C@]43C)[C@@H]12 [Compound 25, 3-O-β-D-Galactopyranoside of Betulin] | > 100 | > 100 | – | > 100 | – | – | – | – |
| C=C(C)[C@@H]1CC[C@]2(C(=O)O)CC[C@]3(C)[C@H](CC[C@@H]4[C@@]5(C)CC[C@H](OC(C)=O)C(C)(C)[C@@H]5CC[C@]43C)[C@@H]12 [Compound 24, 3-Acetoxybetulinic Acid] | 18 ± 2 | 20 ± 2 | – | 57 ± 6 | – | – | – | – |
| CC1(C)CC[C@]23CC[C@]4(C)[C@H](CC[C@@H]5[C@@]6(C)CC[C@H](O[C@@H]7O[C@H](CO)[C@H](O)[C@H](O)[C@H]7O)C(C)(C)[C@@H]6CC[C@]54C)[C@H]2[C@H]1OC3=O [Compound 42, 3-O-β-D-Galactopyranoside of 28-Oxyallobetulin] | > 100 | > 100 | – | > 100 | – | – | – | – |
